Columns and labels:
[1] = target: T1, GDP-loaded KRAS (1-169) G12C, C51S, C80L, C118S (Homo sapiens, UniProt P01116, C118S/C51S/C80L/G12C); experiment: Mass Spectrometry Reactivity Assay (MSRA): covalent adduct of compound and KRAS G12C, Percent Modification; format: binding; details: for MSRA (% modification) 10 μM 0.50 hr: 10 μM compound
T1 construct: GDP-loaded KRAS (1-169) G12C, C51S, C80L, C118S
Experimental: Mass Spectrometry Reactivity Assay (MSRA)
Compounds presented in the present invention covalently bind to KRAS G12C using MSRA to detect a covalent adduct of the exemplary compound and KRAS G12C.
GDP-loaded KRAS (1-169) G12C, C51S, C80L, C118S were diluted in the protein assay buffer 25 mM Hepes pH7.5, 200 mM NaCl, 5% glycerol to concentration of 5 μM and 20 μl of protein was transferred into 96-well plate. Initial compound stocks were generated at concentrations 100-fold higher that their desired assay concentrations. See K-Ras(G12C) inhibitors allosterically control GTP affinity and effector interactions; Ostrem J M, Peters U, Sos M L, Wells J A, Shokat K M; Nature. 2013, Nov. 28; 503(7477):548-51.
Exemplary compounds dissolved in DMSO were diluted 100-fold into solution containing 20 μl of 5 μM KRAS protein in the 96-well plate to initiate the reaction. Mosquito (TPP Lab tech) liquid handling robot was used to add compounds to protein solution. Typical final concentration of the compounds was 5 μM or 10 μM. The plates were placed on a shaker for 1 min at RT, sealed and incubated at room temperature for specified time period. 5 μl of reaction mix was added to 10 μl of 0.2% formic acid stop solution and mixed well. Typical end points were 1, 15, 30, and 60 min.
Data were collected using Waters Acquity H-class UPLC system/Xevo G2-XS TOF mass spectrometer. The protein was injected in their liquid phase onto a Bruker Microtrap protein column TR1/15109/03. The following buffers were used to set LC gradient: Buffer A: 0.2% formic acid H2O; B: 0.2% formic acid CAN. The protein was eluted from the column using the following LC Gradient: 0-0.4 min, 10% B to 30% B; 0.4 min-2.4 min, to 90% B, 2.5 min, 10% B, 3 min, 10% B. Initial data analysis was performed using MaxEnt software right after data acquisition.
The standard auto processing function was used to define percentage of unmodified and modified KRAS protein using MexEnt software right after data acquisition. The highest peak was defined as 100% while smaller peak as assigned the number defined by autoprocessing function. The percent of modification corresponding to modified with exemplary compound and unmodified KRAS GDP-loaded KRAS (1-169) G12C, C51S, C80L, C118S were exported to Xcel data analysis software.
The percent of modified protein at the defined concentration of exemplary compound was calculated using the following formula: % mod=Num of modified peak/Sum of modified+unmodified. The resultant value defined as Percent Modification (PM) and an increase in PM reflects that the specific compound is better than other compounds at specified compound concentration at a given time point.

KRAS G12C = KRAS G12C (Homo sapiens, UniProt P01116, G12C); experiment: Cell Activity Assay: accumulation of GDP-bound KRAS G12C in MIAPaCa-2 cells (Raf-1 RBD capture, MSD readout); format: cell-based; set-up: endogenous in cells; host or cells: MIAPaCa-2; details: 6 hours, assay limit is 30.00
Experimental: Compounds presented in the present invention lead to the accumulation of the GDP bound Ras upon treatment of human cancer cell line.
The accumulation of the GDP-bound KRAS G12C in cellular environment was measured based on the principle that KRAS G12C only binds to its downstream kinase; Raf-1 (MAP Kinase Kinase Kinase), when in its active-GTP bound state. In this state, Ras binded to a domain of Raf-1 kinase referred to as the Ras Binding Domain (RBD).
MIAPaCa-2 cells were grown in RPMI 1640 medium (Gibco 11875) supplemented with 10% fetal bovine serum and 1% penicillin/streptomycin. Cells were seeded in 96-well tissue culture plates at a density of 30,000 cells/well and allowed to attach for 16-24 hours. Test compounds were prepared as a 10 mM stock in DMSO and serially diluted in 100% DMSO using a 3-fold dilution scheme. An intermediate 5× concentrated plate in complete growth medium was made and 25 μl/well was added to the 100 μl of cells for a final concentration of 0.3% DMSO. Each concentration of exemplary compound was tested in duplicate. The negative control wells were cells with control inhibitor at 10 μM, and the positive control wells were cells without drugs, DMSO only. Plates were incubated for 6 hours at 37° C., 5% CO2. Following treatment, cells were washed 3× with ice-cold PBS and 115 μl/well ice-cold 1× Assay/Lysis. Buffer with protease inhibitors was added (25 mM HEPES, pH 7.5, 150 mM NaCl, 1% NP-40, 10 mM MgCl2, 1 mM EDTA, 2% Glycerol). Following lysis samples were frozen at −80° C.
Raf-1 RBD (LJIC-1988A1) was diluted to 100 ng/well in PBS and 5 μl/well was spot coated onto MSD high bind SECTOR plates (L15XB). Plates were incubated at room temperature for 1 hour on an orbital shaker. Plates were washed with PBS/0.05% Tween-20 and 50 μl/well of thawed lysate samples were added, followed by 50 μl of 1% MSD Blocker A in PBS/0.05 Tween-20 (R93BA). Plates were incubated for 1 hour on an orbital shaker and washed with PBS/0.05% Tween-20. 25 μl/well of Anti-pan-Ras Antibody (Cell Biolabs 244003) diluted 1:3000 was added in 1% MSD Blocker A solution and plates were incubated for 1 hour on an orbital shaker and washed with PBS/0.05% Tween-20. SULFO-TAG goat anti-mouse secondary antibody (MSD R32AC) was diluted 1:500 in MSD Blocker A solution and added at 25 μL/well. Plates were incubated for 1 hour on an orbital shaker and washed with PBS/0.05% Tween-20. 150 μl/well of Read Buffer T (MSD R92TC) diluted 1:3 in H2O was added and plates were read on a Meso Scale Discovery Sector Imager S600.
KRAS signal was normalized to maximum inhibition and DMSO control values, and IC50 values were generated using a 4 parameter fit of the dose response curve. The decrease in IC50 reflects that the exemplary compound lead to a higher level of accumulation of GDP-bound KRAS G12C than another exemplary compounds at specific timepoint of treatment of cancer cell line.

`C=CC(=O)N1CCN(c2nc(OC3CCN(C)CC3)nc3c(Oc4c(Cl)c(F)cc5[nH]ncc45)nccc23)CC1` [Example 16I, 1-(4-{8-[(5-chloro-6-fluoro-1H-indazol-4-yl)oxy]-2-[(1-methyl-piperidin-4-yl)oxy]pyrido [3,4-d]pyrimidin-4-yl}piperazin-1-yl)prop-2-en-1-one] was tested, and the “MSRA (% modification) 5.0 μM 0.25 hr” value ([1]; 5.0 μM compound, 0.25 hr) was 48% and the IC50 (KRAS G12C) was 0.582 µM.
With `C=CC(=O)N1CCN(c2nc(Oc3cccc4c3CN(C)C4)nc3c(Oc4c(Cl)c(F)cc5[nH]ncc45)nccc23)CC1` [Example 41I, 1-(4-{8-[(5-chloro-6-fluoro-1H-indazol-4-yl)oxy]-2-[(2-methyl-2,3-dihydro-1H-isoindol-4-yl)oxy]pyrido [3,4-d]pyrimidin-4-yl}piperazin-1-yl)prop-2-en-1-one] the “MSRA (% modification) 5.0 μM 0.017 hr” value ([1]; 5.0 μM compound) was 70% and the IC50 (KRAS G12C) was 0.021 µM.
`C=CC(=O)N1CCN(c2nc(NC(C)c3nncn3C)nc3c(Oc4c(C)ccc5[nH]ncc45)cccc23)CC1` (stereo not drawn) [Example 03F, 1-[4-(8-[(5-methyl-1H-indazol-4-yl)oxy]-2-{[1-(4-methyl-4H-1,2,4-triazol-3-yl)ethyl]amino}quinazolin-4-yl)piperazin-1-yl]prop-2-en-1-one] was tested, and the “MSRA (% modification) 10 μM 0.50 hr” value [1] was 12% and the IC50 (KRAS G12C) was greater than 30 µM.
With `C=CC(=O)N1CCN(c2nc(O[C@@H]3CN(C)C[C@H]3CC)nc3c(Oc4c(Cl)c(F)cc5[nH]ncc45)nc(Cl)cc23)CC1` (racemic) [Example 28G, rac-1-[4-(6-chloro-8-[(5-chloro-6-fluoro-1H-indazol-4-yl)oxy]-2-{[(3S,4R)-4-ethyl-1-methylpyrrolidin-3-yl]oxy}pyrido[3,4-d]pyrimidin-4-yl)piperazin-1-yl]prop-2-en-1-one] the “MSRA (% modification) 5.0 μM 0.017 hr” value ([1]; 5.0 μM compound) was 60% and the IC50 (KRAS G12C) was 0.037 µM.
In the case of `C=CC(=O)N1CCN(c2ncnc3c(Nc4c(C)ccc5[nH]ncc45)nccc23)CC1` [Example 05, 1-(4-{8-[(5-methyl-1H-indazol-4-yl)amino]pyrido[3,4-d]pyrimidin-4-yl}piperazin-1-yl)prop-2-en-1-one], the “MSRA (% modification) 10 μM 0.50 hr” value [1] is reported as 5% and the IC50 (KRAS G12C) is reported as 29.3 µM.
For `C=CC(=O)N1CCN(c2nc(O[C@@H]3CN(C)C[C@H]3C(F)F)nc3c(Oc4c(Cl)c(F)cc5[nH]ncc45)nccc23)CC1` (single isomer, unassigned) [Example 59I], the “MSRA (% modification) 5.0 μM 0.017 hr” value ([1]; 5.0 μM compound) was 13% and the IC50 (KRAS G12C) was 0.123 µM.
`C=CC(=O)N1CCN(c2ncnc3c(Oc4c(C)ccc5[nH]ncc45)nc(C#N)cc23)CC1` [Example 18A, 4-(4-acryloylpiperazin-1-yl)-8-[(5-methyl-1H-indazol-4-yl)oxy]pyrido[3,4-d]pyrimidine-6-carbonitrile] was tested, and the “MSRA (% modification) 10 μM 0.50 hr” value [1] was 34% and the IC50 (KRAS G12C) was 6.45 µM.
With `C=CC(=O)N1CCN(c2nc(O[C@@H]3CN(C)C[C@H]3C)nc3c(Oc4c(Cl)c(Cl)cc5[nH]ncc45)nccc23)CC1` (racemic) [Example 51I, rac-1-[4-(8-[(5,6-dichloro-1H-indazol-4-yl)oxy]-2-{[(3S,4R)-1,4-dimethyl-pyrrolidin-3-yl]oxy}pyrido [3,4-d]pyrimidin-4-yl)piperazin-1-yl]prop-2-en-1-one] the “MSRA (% modification) 5.0 μM 0.017 hr” value ([1]; 5.0 μM compound) was 39% and the IC50 (KRAS G12C) was 0.031 µM.
`C=CC(=O)N1CCN(c2ncnc3c(Oc4c(C)ccc5[nH]ncc45)cccc23)[C@@H](C)C1` [Example 10C, 1-[(3S)-3-methyl-4-{8-[(5-methyl-1H-indazol-4-yl)oxy]quinazolin-4-yl}piperazin-1-yl]prop-2-en-1-one] was tested, and the “MSRA (% modification) 10 μM 0.50 hr” value [1] was 27% and the IC50 (KRAS G12C) was 5.21 µM.
`C=CC(=O)N1CCN(c2nc(O[C@@H]3CN(C)C[C@@H]3OC)nc3c(Oc4c(Cl)c(F)cc5[nH]ncc45)nc(Cl)cc23)CC1` (racemic) [Example 26G, rac-1-[4-(6-chloro-8-[(5-chloro-6-fluoro-1H-indazol-4-yl)oxy]-2-{[(3R,4S)-4-methoxy-1-methylpyrrolidin-3-yl]oxy}pyrido[3,4-d]pyrimidin-4-yl)piperazin-1-yl]prop-2-en-1-one] was tested, and the “MSRA (% modification) 5.0 μM 0.017 hr” value ([1]; 5.0 μM compound) was 35% and the IC50 (KRAS G12C) was 0.195 µM.
With `C=CC(=O)N1CCN(c2ncnc3c(Oc4cc(O)cc5ccccc45)nc(C)cc23)CC1` [Example 02, 1-(4-{8-[(3-Hydroxynaphthalen-1-yl)oxy]-6-methylpyrido[3,4-d]pyrimidin-4-yl}piperazin-1-yl)prop-2-en-1-one] the “MSRA (% modification) 10 μM 0.50 hr” value [1] was 19% and the IC50 (KRAS G12C) was greater than 30 µM.
For `C=CC(=O)N1CCN(c2nc(OC)nc3c(Oc4c(C)ccc5[nH]ncc45)nccc23)CC1` [Example 01B, 1-(4-{2-methoxy-8-[(5-methyl-1H-indazol-4-yl)oxy]pyrido[3,4-d]pyrimidin-4-yl}piperazin-1-yl)prop-2-en-1-one], the “MSRA (% modification) 10 μM 0.50 hr” value [1] was 12% and the IC50 (KRAS G12C) was 16.9 µM.
`C#CCN1C[C@@H](OC)[C@H](Oc2nc(N3CCN(C(=O)C=C)CC3)c3ccnc(Oc4c(Cl)c(F)cc5[nH]ncc45)c3n2)C1` [Example 43I, 1-[4-(8-[(5-chloro-6-fluoro-1H-indazol-4-yl)oxy]-2-{[(3R,4R)-4-methoxy-1-(prop-2-yn-1-yl)pyrrolidin-3-yl]oxy}pyrido [3,4-d]pyrimidin-4-yl)piperazin-1-yl]prop-2-en-1-one] was tested, and the “MSRA (% modification) 5.0 μM 0.017 hr” value ([1]; 5.0 μM compound) was 54% and the IC50 (KRAS G12C) was 0.019 µM.
In the case of `C=CC(=O)N1CCN(c2ncnc3c(Oc4c(C)cccc4Cl)nccc23)CC1` [Example 03, 1-{4-[8-(2-Chloro-6-methylphenoxy)pyrido[3,4-d]pyrimidin-4-yl]piperazin-1-yl}prop-2-en-1-one], the “MSRA (% modification) 10 μM 0.50 hr” value [1] is reported as 15% and the IC50 (KRAS G12C) is reported as greater than 30 µM.
`C=CC(=O)N1CCN(c2nc(O[C@@H]3CN(C)C[C@H]3OC)nc3c(Oc4c(Cl)c(F)cc5[nH]ncc45)cccc23)CC1` [Example 01L, 1-[4-(8-[(5-chloro-6-fluoro-1H-indazol-4-yl)oxy]-2-{[(3R,4R)-4-methoxy-1-methylpyrrolidin-3-yl]oxy}quinazolin-4-yl)piperazin-1-yl]prop-2-en-1-one] was tested, and the “MSRA (% modification) 5.0 μM 0.017 hr” value ([1]; 5.0 μM compound) was 51% and the IC50 (KRAS G12C) was 0.038 µM.
